Earlier results as cited in PMC8924334, “Synthesis of [^11C]carbonyl-labeled cyclohexyl (5-(2-acetamidobenzo[d]thiazol-6-yl)-2-methylpyridin-3-yl)carbamate ([^11C-carbonyl]PK68) as a potential PET tracer for receptor-interacting protein 1 kinase” (EJNMMI Radiopharmacy and Chemistry, 2022).
Where two headings read alike, the source gives them in different places.

Columns and labels:
[1] = tested on: RIPK1; design: method as in Hou et al. 2019; conditions: human cell line; ref Hou et al. 2019; cited from earlier work
[2] = tested on: RIPK1; design: method as in Hou et al. 2019; conditions: mouse cell line; ref Hou et al. 2019; cited from earlier work
[3] = tested on: melanoma (B16F10); design: method as in Hou et al. 2019; conditions: B16F10-bearing mice; ref Hou et al. 2019; cited from earlier work
[4] = tested on: RIPK1; design: method as in Degterev et al. 2005; conditions: ref Degterev et al. 2005; cited from earlier work
[5] = tested on: RIPK1; design: method as in Harris et al. 2017; conditions: human cells; ref Harris et al. 2017; cited from earlier work
[6] = tested on: RIPK1; design: method as in Harris et al. 2017, 2019; conditions: rodents; ref Harris et al. 2017, 2019; cited from earlier work

CC(=O)Nc1nc2ccc(-c3cnc(C)c(NC(=O)OC4CCCCC4)c3)cc2s1 [PK68, cyclohexyl (5-(2-acetamidobenzo[d]thiazol-6-yl)-2-methylpyridin-3-yl)carbamate]
IC50 [1]: 23 nM | IC50 [2]: 13 nM | number of tumor metastases [3]: significant reduction in the number of tumor metastases

CN1C(=O)C(Cc2c[nH]c3ccccc23)NC1=S (centres unmarked) [compound 1, Necrostatin-1]
EC50 [4]: 490 nM | number of tumor metastases [3]: significant reduction in the number of tumor metastases

CN1C(=O)NC(Cc2c[nH]c3c(Cl)cccc23)C1=O (centres unmarked) [compound 2, 7-Cl-O-Nec-1]
EC50 [4]: 210 nM

CN1C(=O)[C@@H](NC(=O)c2n[nH]c(Cc3ccccc3)n2)COc2ccccc21 [compound 3]
IC50 [5]: 6.3 nM | IC50 [6]: > 1000 nM
